# Source: patent US10329249B1, “Sulindac derivatives” (KING SAUD UNIVERSITY, priority 2018, dated 2019)
# Marks after values point to notes of the source that are not given here.
# How the values were obtained:
# malondialdehyde (MDA) = test: Determination of malondialdehyde in stomach tissue; format: in vivo, rats; conditions: Sulindac 100, Compound 8 150, mean ±SEM
# Description: In a study for the determination of malondialdehyde, non-protein sulfhydryls, and total protein, stomach tissues were removed from rats, and each tissue was homogenized in 0.15M KCl to give a 10% w/v homogenate. Aliquots of homogenate (1 mL) were incubated at 37° C. for three hours in a metabolic shaker. Then 1 mL of 10% aqueous trichloroacetic acid was added to the homogenate and mixed. This suspension was then centrifuged at 4000 rpm for 10 min. […] The mixture was cooled and diluted with 1 mL of distilled water. The absorbance of the solution was then read at 535 nm. The content of malondialdehyde (MDA) (nmol/g) was then calculated by reference to a standard curve of MDA solution.
# [1] = tested on: non-protein sulfhydryls (NP-SH); test: Non-protein sulfhydryls in stomach tissue; format: in vivo, rats; conditions: Sulindac 100, Compound 8 150, mean ±SEM
# Description: […] non-protein sulfhydryls (NP-SH) were measured by homogenizing rat stomach tissues in ice cold 0.02 mmol/L ethylenediaminetetraacetic acid (EDTA). Aliquots of 5 mL of the homogenates were mixed in 15 mL test tube with 4 mL of distilled water and 1 mL of 50% trichloroacetic acid (TCA). The test tubes were shaken intermittently for 10 min. and centrifuged at 3000 rpm for 10 min. A total of 2 mL supernatant was mixed with 4 mL of […] tris buffer (pH 8.9). A total of 0.1 mL of 5,5-dithiobis(2-nitrobenzoic acid) ([…]) was added, and the sample was shaken. The absorbance was measured within 5 min. of addition of DTNB at 412 nm and compared to a reagent blank.
# [2] = tested on: acute nociception (tail flick); test: Analgesic study by tail flick method; format: in vivo, mice; conditions: Sulindac 100 mg/kg oral; for % Inhibition 30 min / Reaction Time 30 min / % Inhibition 60 min / Reaction Time 60 min / % Inhibition 120 min / Reaction Time 120 min: Compound 8 150 mg/kg; for Reaction Time 30 min / Reaction Time 60 min / Reaction Time 120 min / Reaction Time, Pre-drug: mean ±SEM; for Reaction Time, Pre-drug: pre-drug baseline, groups Compound 8 150 mg/kg
# Description: (§1) All animal experiments used healthy male albino rats (200 g-220 g) and mice. The animals were kept in standard plastic animal cages in groups of six animals each with a 12 hour light and dark cycle. The animals were acclimatized to laboratory conditions for a week prior to the experiments.
# In an analgesic study by tail flick method, acute nociception was assessed using a tail flick apparatus (Tail Flick model DS 20 Sorrel Apelex, France). Briefly, each animal was placed in a restrainer 2 min. before treatment and baseline reaction time was measured by focusing an intensity controlled beam of light on the distal one-third portion of the animal's tail. […] A 10 sec cut off time was used in order to prevent tissue damage.
# hot plate nociception = test: Analgesic activity by hot plate method; format: in vivo, mice; conditions: Sulindac 100 mg/kg oral; for % Inhibition 30 min / Reaction Time 30 min / % Inhibition 60 min / Reaction Time 60 min / % Inhibition 120 min / Reaction Time 120 min: Compound 8 150 mg/kg; for Reaction Time 30 min / Reaction Time 60 min / Reaction Time 120 min / Reaction Time, Pre-drug: mean ±SEM; for Reaction Time, Pre-drug: pre-drug baseline, groups Compound 8 150 mg/kg
# Description: as §1
# In an analgesic activity by hot plate method study, animals were dropped gently on a hot plate maintained at […]. Reaction time was recorded as the interval extending from the instant the animal reached the hot plate until the moment the animal licked its forefeet or jumped off. […]
# [3] = tested on: acetic acid induced writhing; test: Analgesic activity by acetic acid induced writhing; format: in vivo, mice; conditions: Compound 8 150 mg/kg, Sulindac 100 mg/kg; for % Inhibition (writhing): versus acetic acid group; for Movements (writhing): counted for 20 minutes after i.p. acetic acid, mean ±SEM
# Description: as §1
# In an analgesic activity by writhing study, writhing was induced in mice by intraperitoneal administration of 0.1 mL of 1% acetic acid. The number of writhing movements was counted for 20 minutes. The writhing test was performed after the administration of the vehicle or sulindac derivative compound.
# [4] = tested on: carrageenan-induced paw edema; test: Carrageenan induced paw edema; format: in vivo, rats; conditions: Sulindac 100 mg/kg oral; for Paw volume before carrageenan: baseline, groups Compound 8 150 mg/kg, in mL (unit assumed)
# Description: as §1
# In a Carrageenan induced paw edema in rats study, Carrageenan sodium salt (0.05 mL of 1% BDH) was injected into the right hind foot of each rat (male or female, 200-220 g) under the plantar aponeurosis. The test group of was treated orally with a Sulindac derivative compound 1 hour before carrageenan injection. At the same time, the control group was given 5 mL/kg of normal saline and the reference group was given 100 mg/kg of an aqueous solution of sulindac. […] Inhibitory activity was calculated using the following:
# [formula] where “B” is the mean paw volume of control rats after carrageenan injection, “Y” is the mean paw volume of control rats before the carrageenan injection, “X” is the mean paw volume of treated rats before carrageenan injection, and “A” is the mean paw volume of treated rats after the carrageenan injection.
# [5] = tested on: yeast-induced hyperthermia; test: Anti-pyretic study, brewer's yeast-induced hyperthermia; format: in vivo, mice; conditions: mean ±SEM; for Rectal temperature 30 min: 30 min after drug; for Rectal temperature 30 min / Rectal temperature 60 min / Rectal temperature 120 min: Compound 8 150 mg/kg; for Rectal temperature 30 min / Rectal temperature 60 min / Rectal temperature 120 min / Rectal temperature, Control: Sulindac 100 mg/kg; for Rectal temperature 60 min: 60 min after drug; for Rectal temperature 120 min: 120 min after drug; for Rectal temperature, Control: after yeast injection, pre-drug, groups Compound 8 150 mg/kg; for Rectal temperature, Normal: before yeast, groups later given Compound 8 150 mg/kg or Sulindac 100 mg/kg
# Description: as §1
# In an anti-pyretic study, hyperthermia was induced in mice by subcutaneous injection of 20 mL/kg of a 20% aqueous suspension of brewer's yeast in the back below of nape of the neck. The animals were fasted for 24 hours. Water was made available. Control rectal temperature was recorded 24 hours after the yeast injection to determine the pyretic response to yeast. Rectal temperature recordings were then taken 1 hour prior to drug administration in the fevered animals to serve as a pre drug control. […]
# ethanol-induced ulcer = test: Ulcer study using 80% ethanol (gastric mucosal damage score); format: in vivo, rats; conditions: sulindac 100 mg/kg; for Ulcer Index: mean ±SEM; for % Inhibition (ulcer index): Cmpd 8 150 mg/kg, versus 80% EtOH alone
# Description: as §1
# In an ulcer study of sulindac derivatives using 80% ethanol, the ethanol-induced ulcer model was used to study gastro-protective activity of sulindac derivative Compound 8. Rats were grouped into five groups (n=6). Group I received 80% ethanol only and served as an ulcer control. Group II received 80% ethanol and sulindac (100 mg/kg) orally. […] Animals in Group IV received sulindac (100 mg/kg body weight) without any ethanol. […] Animals of all Groups were sacrificed 1 hour later under anesthesia and their stomachs were quickly removed for further studies. The stomach was opened along the greater curvature, washed with distilled water and cleaned gently by dipping in saline. The mucosal damage was assessed according to the following scoring system: redness=0.5, spot ulcer=1.0, hemorrhagic streaks=1.5, ulcer>3 but<5=2.0, ulcers>5=3.0. The mean score of each treated group minus the mean score of the control group was taken as the severity index of gastric mucosal damage. Results were calculated by ANOVA followed by Dunnett's multiple comparison test and are summarized in Table 7, represent mean±SEM; ***=p<0.001 (n=6).
# [6] = Compound 8 150 mg/kg, mean ±SEM
# [7] = 5 hours, Compound 8 150 mg/kg, mean ±SEM
# [8] = with 80% EtOH, Cmpd 8 150 mg/kg oral, sacrificed 1 hour later
SMILES,"MDA (malondialdehyde (MDA); drug alone, no ethanol)",MDA (malondialdehyde (MDA); with 80% Ethanol 1 mL),"NP-SH ([1]; drug alone, no ethanol)",NP-SH ([1]; with 80% Ethanol 1 mL),% Inhibition 30 min [2],Reaction Time 30 min [2],% Inhibition 60 min [2],Reaction Time 60 min [2],% Inhibition 120 min [2],Reaction Time 120 min [2],"Reaction Time, Pre-drug [2]",% Inhibition 30 min (hot plate nociception),Reaction Time 30 min (hot plate nociception),% Inhibition 60 min (hot plate nociception),Reaction Time 60 min (hot plate nociception),% Inhibition 120 min (hot plate nociception),Reaction Time 120 min (hot plate nociception),"Reaction Time, Pre-drug (hot plate nociception)",% Inhibition (writhing) [3],Movements (writhing) [3],further results
CC1=C(CC(=O)N/N=C\c2ccc(N(C)C)cc2)c2cc(F)ccc2/C1=C\c1ccc([S+](C)[O-])cc1 (centres unmarked) [Compound 8],1.06 ± 0.02 nmol/g,1.59 ± 0.06 nmol/g,7.52 ± 0.31 nmol/g,6.62 ± 0.26 nmol/g,3.33%,4.83 ± 0.30 s,46.66%,7.33 ± 0.42 s,63.33%,7.16 ± 0.30 s,5.00 ± 0.36 s,15%,7.66 ± 0.42 s,47.50%,9.83 ± 0.30 s,67.50%,11.16 ± 0.30 s,6.66 ± 0.33 s,56.86%,14.66 ± 0.95,"% Inhibition of paw edema after 3 hours ([4]; Compound 8 150 mg/kg): 50.52%; Increased paw volume after 3 hours, Mean [4, 6]: 1.34 ± 0.02; Increased paw volume after 3 hours, Net [4, 6]: 0.31 ± 0.03; % Inhibition of paw edema after 5 hours ([4]; 5 hours, Compound 8 150 mg/kg): 50.54%; Increased paw volume after 5 hours, Mean [4, 7]: 1.33 ± 0.01; Increased paw volume after 5 hours, Net [4, 7]: 0.30 ± 0.02; Paw volume before carrageenan ([4]; mean ±SEM): 1.02 ± 0.02; Rectal temperature 30 min [5]: 38.15 ± 0.10 °C; Rectal temperature 60 min [5]: 37.83 ± 0.15 °C; Rectal temperature 120 min [5]: 37.33 ± 0.12 °C; Rectal temperature, Control [5]: 38.38 ± 0.19 °C; Rectal temperature, Normal [5]: 35.16 ± 0.10 °C; Ulcer Index (ethanol-induced ulcer; [8]): 4.33 ± 0.4***; % Inhibition (ulcer index) (ethanol-induced ulcer; with 80% EtOH): 40.90%"
CC1=C(CC(=O)O)c2cc(F)ccc2/C1=C\c1ccc([S+](C)[O-])cc1 (centres unmarked) [Sulindac],1.31 ± 0.04 nmol/g,2.28 ± 0.11 nmol/g,7.00 ± 0.032 nmol/g,5.08 ± 0.28 nmol/g,13.79%,5.50 ± 0.34 s,82.75%,8.83 ± 0.79 s,127.58%,11.00 ± 0.57 s,4.83 ± 0.40 s,41.30%,10.83 ± 0.47 s,54.34%,11.83 ± 0.47 s,86.95%,14.33 ± 0.42 s,7.66 ± 0.33 s,74.01%,8.83 ± 0.70,"% Inhibition of paw edema after 3 hours ([4]; Compound 8 150 mg/kg): 65.18%; Increased paw volume after 3 hours, Mean [4, 6]: 1.26 ± 0.03; Increased paw volume after 3 hours, Net [4, 6]: 0.22 ± 0.01; % Inhibition of paw edema after 5 hours ([4]; 5 hours, Compound 8 150 mg/kg): 65.02%; Increased paw volume after 5 hours, Mean [4, 7]: 1.25 ± 0.03; Paw volume before carrageenan ([4]; mean ±SEM): 1.03 ± 0.03; Rectal temperature 30 min [5]: 37.46 ± 0.14 °C; Rectal temperature 60 min [5]: 37.16 ± 0.09 °C; Rectal temperature 120 min [5]: 36.23 ± 0.08 °C; Rectal temperature, Control [5]: 38.21 ± 0.31 °C; Rectal temperature, Normal [5]: 35.21 ± 0.11 °C; Ulcer Index (ethanol-induced ulcer; drug alone, without ethanol, Compound 8 150 mg/kg oral): 1.33 ± 0.49; Ulcer Index (ethanol-induced ulcer; [8]): 6.83 ± 0.40; % Inhibition (ulcer index) (ethanol-induced ulcer; with 80% EtOH): 6.81%"
